In PubChem BioAssay (NCI):
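All cell lines were grown in 96-well plates and treated with compound for 48 hours. Here, GI50 denotes the concentration required for 50% inhibition of growth. TGI: total growth inhibition.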

What was measured:
Experiment in all cases: NCI tumour cell line growth inhibition, 48 h
[1] = tested on: UACC-62 melanoma
[2] = tested on: MOLT-4 leukemia
[3] = tested on: NCI-H522 lung
[4] = tested on: NCI-H23 lung
[5] = tested on: CCRF-CEM leukemia
[6] = tested on: OVCAR-5 ovarian
[7] = tested on: UACC-257 melanoma
[8] = tested on: SNB-75 CNS
[9] = tested on: MDA-MB-231 breast
[10] = tested on: T-47D breast

| Structure (SMILES) | TGI [1] | TGI [2] | TGI [3] | TGI [4] | TGI [5] | TGI [6] | TGI [7] | TGI [8] | TGI [9] | TGI [10] | GI50 [5] | GI50 [7] | GI50 [9] | GI50 [8] |
| --- | --- | --- | --- | --- | --- | --- | --- | --- | --- | --- | --- | --- | --- | --- |
| COc1cccc(-c2nc(-c3cnccn3)n(C/C=C/c3ccccc3)n2)c1 | > 10 µM | > 10 µM | > 10 µM | > 10 µM | > 10 µM | > 10 µM | > 10 µM | > 10 µM |  |  |  |  |  |  |
| CC(=O)OCC1OC(n2c(C)c(N=Nc3ccc(Cl)cc3)c(C)c(C#N)c2=S)C(OC(C)=O)C(OC(C)=O)C1OC(C)=O (stereo not given) | > 100 µM | > 100 µM |  | > 100 µM | > 100 µM | > 100 µM | > 100 µM | 49.1 µM | > 100 µM | > 100 µM |  |  |  |  |
| CCOc1cc(NC(C)=O)ccc1C(=O)NNS(=O)(=O)c1ccc(NC(C)=O)cc1 | > 100 µM | > 100 µM | > 100 µM | > 100 µM | > 100 µM | > 100 µM | > 100 µM | > 100 µM |  | > 100 µM |  |  |  |  |
| N/C(=N\S(=O)(=O)c1ccc(-c2ncccc2C(F)(F)F)s1)Nc1ccc(Cl)cc1 | 23.3 µM | 53.7 µM | 23.6 µM | 27.5 µM |  | 44 µM | 14 µM | 40 µM | 27.2 µM | 48.3 µM |  |  |  |  |
| CCC(=O)OCN(C)c1nc(N(C)COC(=O)CC)nc(N(C)COC(=O)CC)n1 | 35.8 µM | 82.9 µM |  | > 100 µM | > 100 µM | > 100 µM | > 100 µM | > 100 µM | > 100 µM | > 100 µM |  |  |  |  |
| C[n+]1c2ccccc2c(NC(CCCN=C(N)N)C(=O)O)c2ccccc21 (stereo not given) | > 100 µM | > 100 µM | > 100 µM | > 100 µM |  | > 100 µM | > 100 µM | > 100 µM |  |  |  |  |  |  |
| CC(=O)Nc1c(C(=N)C#N)ncn1CCO | > 100 µM |  | > 100 µM | > 100 µM | > 100 µM | > 100 µM | > 100 µM | > 100 µM | > 100 µM | > 100 µM |  |  |  |  |
| CCOC(=O)CCC1(CCC(=O)OCC)CCCCCCCCC(CCC(=O)OCC)(CCC(=O)OCC)C(=O)C1=O | > 100 µM |  | > 100 µM | > 100 µM |  | > 100 µM | > 100 µM | > 100 µM |  | > 100 µM |  |  |  |  |
| COc1ccc(/C(Cl)=C(\C#N)c2ccc(OC)c(OC)c2)cc1OC | > 100 µM | > 100 µM | > 100 µM | > 100 µM |  | > 100 µM | > 100 µM |  | > 100 µM | > 100 µM |  |  |  |  |
| CC1(C)OP(=O)(O)C=C1Sc1ccc([N+](=O)[O-])cc1[N+](=O)[O-] | > 100 µM |  | > 100 µM | > 100 µM |  | > 100 µM | > 100 µM | > 100 µM |  | > 100 µM |  |  |  |  |
| O=C(NCCN1CCOCC1)c1ccc(I)cc1 | > 100 µM | > 100 µM |  | > 100 µM | > 100 µM | > 100 µM |  | > 100 µM |  |  |  |  |  |  |
| COC(=O)[C@@H](NC(=O)N(Cc1ccccc1)C[C@H](CC(C)C)NC(=O)[C@@H](NC(=O)OC(C)(C)C)C(C)C)C(C)C | > 100 µM | > 100 µM | > 100 µM | > 100 µM |  | > 100 µM | > 100 µM | > 100 µM | > 100 µM | > 100 µM |  |  |  |  |
| COc1ccc(C2COc3c(ccc(O)c3C)C2)cc1OC (stereo not given) | > 200 µM | > 183 µM | 142 µM | > 200 µM | > 200 µM | > 162 µM | > 200 µM | 110 µM |  |  |  |  |  |  |
| Cc1cc(C)nc(NC(P(=O)(O)O)P(=O)(O)O)n1 | > 100 µM |  | > 100 µM | > 100 µM |  | > 100 µM | > 100 µM |  | > 100 µM |  |  |  |  |  |
| Cc1ccc(C(=O)NCc2ccccc2)cc1N=NN(C)C | > 100 µM | > 100 µM | 90.1 µM | > 100 µM | > 100 µM | > 100 µM | 88.2 µM |  | > 100 µM | > 100 µM |  |  |  |  |
| CN1CCN(/C(N)=C(\C#N)C(=O)Nc2ccc(Cl)cc2)CC1 | 58.9 µM | > 100 µM |  | > 100 µM | > 100 µM | > 100 µM | > 100 µM | > 100 µM |  | > 100 µM |  |  |  |  |
| COc1ccc2c(c1)c(-c1nc(-c3c[nH]c4ncccc34)cs1)cn2CCCCN1CCCCC1 |  |  |  |  | 3.5 µM |  | 3.35 µM | 2.68 µM | 3.08 µM |  | 1.83 µM | 1.8 µM | 1.61 µM | 1.27 µM |
| O=C1CCSCCC(=O)Nc2ccccc2N1 | > 100 µM | > 100 µM | > 100 µM | > 100 µM | > 100 µM | > 100 µM | > 100 µM |  | > 100 µM | > 100 µM |  |  |  |  |
